Laboratory results as given in ChEMBL document CHEMBL5620394, “Synthesis of new antiproliferative 1,3,4-substituted-pyrrolo[3,2-c]quinoline derivatives, biological and in silico insights” (Eur J Med Chem, 2023).
Calls of active or inactive are those of the source. The calls are words filed in the database; no cut-off is given here.

Columns and labels:
[1] = test system: SR; assay: Antiproliferative activity against human SR cells assessed as cell growth at 10 uM incubated for 48 hrs by sulforhodamine B assay relative to control; type: functional; settings: read-out: Activity
[2] = test system: MDA-MB-231; assay: Antiproliferative activity against human MDA-MB-231 cells assessed as cell growth at 10 uM incubated for 48 hrs by sulforhodamine B assay relative to control; type: functional; settings: read-out: Activity
[3] = test system: MCF7; assay: Inhibition of colony formation in human MCF7 cells incubated for 72 hrs by crystal violet staining assay; type: functional, cell-based
[4] = Growth inhibition of human MCF-10A cells at 25 uM incubated for 24 to 48 hrs by cell counter analysis relative to control; type: toxicity, cell-based; settings: time 24-48 hrs, read-out: GI
[5] = test system: A549; assay: Antiproliferative activity against human A549 cells assessed as cell growth at 10 uM incubated for 48 hrs by sulforhodamine B assay relative to control; type: functional; settings: read-out: Activity
[6] = test system: IGROV-1; assay: Antiproliferative activity against human IGROV-1 cells assessed as cell growth at 10 uM incubated for 48 hrs by sulforhodamine B assay relative to control; type: functional; settings: read-out: Activity
[7] = test system: HCT-116; assay: Antiproliferative activity against human HCT-116 cells assessed as cell growth at 10 uM incubated for 48 hrs by sulforhodamine B assay relative to control; type: functional; settings: read-out: Activity
[8] = test system: T47D; assay: Antiproliferative activity against human T47D cells assessed as cell growth at 10 uM incubated for 48 hrs by sulforhodamine B assay relative to control; type: functional; settings: read-out: Activity
[9] = test system: PC-3; assay: Antiproliferative activity against human PC-3 cells assessed as cell growth at 10 uM incubated for 48 hrs by sulforhodamine B assay relative to control; type: functional; settings: read-out: Activity
[10] = test system: MCF7; assay: Growth inhibition of human MCF7 cells at 25 uM incubated for 24 hrs by cell counter analysis relative to control; type: functional; settings: read-out: GI
[11] = test system: MDA-MB-231; assay: Growth inhibition of human MDA-MB-231 cells at 25 uM incubated for 72 hrs by cell counter analysis relative to control; type: functional; settings: read-out: GI
[12] = test system: EKVX; assay: Antiproliferative activity against human EKVX cells assessed as cell growth at 10 uM incubated for 48 hrs by sulforhodamine B assay relative to control; type: functional; settings: read-out: Activity
[13] = test system: MCF7; assay: Antiproliferative activity against human MCF7 cells assessed as cell growth at 10 uM incubated for 48 hrs by sulforhodamine B assay relative to control; type: functional; settings: read-out: Activity
[14] = test system: MDA-MB-468; assay: Antiproliferative activity against human MDA-MB-468 cells assessed as cell growth at 10 uM incubated for 48 hrs by sulforhodamine B assay relative to control; type: functional; settings: read-out: Activity
[15] = test system: CAKI-1; assay: Antiproliferative activity against human CAKI-1 cells assessed as cell growth at 10 uM incubated for 48 hrs by sulforhodamine B assay relative to control; type: functional; settings: read-out: Activity
[16] = test system: MCF7; assay: Growth inhibition of human MCF7 cells at 50 uM incubated for 24 hrs by cell counter analysis relative to control; type: functional; settings: read-out: GI
[17] = test system: KM12; assay: Antiproliferative activity against human KM12 cells assessed as cell growth at 10 uM incubated for 48 hrs by sulforhodamine B assay relative to control; type: functional; settings: read-out: Activity
[18] = Growth inhibition of human MCF-10A cells at 10 uM incubated for 72 hrs by cell counter analysis relative to control; type: toxicity, cell-based; settings: read-out: GI
[19] = test system: MDA-MB-231; assay: Growth inhibition of human MDA-MB-231 cells at 10 uM incubated for 24 hrs by cell counter analysis relative to control; type: functional; settings: read-out: GI
[20] = test system: MCF7; assay: Induction of cell cycle arrest in human MCF7 cells assessed as decrease in accumulation of cells at G0/G1 phase incubated for 72 hrs by propidium iodide staining based flow cytometry analysis; type: functional
[21] = test system: MDA-MB-231; assay: Growth inhibition of human MDA-MB-231 cells at 50 uM incubated for 24 hrs by cell counter analysis relative to control; type: functional; settings: read-out: GI
[22] = test system: MDA-MB-435; assay: Antiproliferative activity against human MDA-MB-435 cells assessed as cell growth at 10 uM incubated for 48 hrs by sulforhodamine B assay relative to control; type: functional; settings: read-out: Activity
[23] = test system: MOLT-4; assay: Antiproliferative activity against human MOLT-4 cells assessed as cell growth at 10 uM incubated for 48 hrs by sulforhodamine B assay relative to control; type: functional; settings: read-out: Activity
[24] = test system: MCF7; assay: Induction of cell cycle arrest in human MCF7 cells assessed as increase in accumulation of cells at G2/M phase at 10 to 25 uM incubated for 72 hrs by propidium iodide staining based flow cytometry analysis; type: functional; settings: dose 10-25 µM
[25] = test system: SNB-75; assay: Antiproliferative activity against human SNB-75 cells assessed as cell growth at 10 uM incubated for 48 hrs by sulforhodamine B assay relative to control; type: functional; settings: read-out: Activity
[26] = test system: MCF7; assay: Induction of cell cycle arrest in human MCF7 cells assessed as increase in accumulation of cells at sub-G1 phase at 10 uM incubated for 72 hrs by propidium iodide staining based flow cytometry analysis; type: functional
[27] = test system: MDA-MB-231; assay: Growth inhibition of human MDA-MB-231 cells at 25 uM incubated for 24 hrs by cell counter analysis relative to control; type: functional; settings: read-out: GI
[28] = test system: MCF7; assay: Growth inhibition of human MCF7 cells at 25 uM incubated for 72 hrs by cell counter analysis relative to control; type: functional; settings: read-out: GI
[29] = test system: MCF7; assay: Induction of cell cycle arrest in human MCF7 cells assessed as increase in accumulation of cells at S phase at 25 uM incubated for 72 hrs by propidium iodide staining based flow cytometry analysis; type: functional
[30] = test system: SF-295; assay: Antiproliferative activity against human SF-295 cells assessed as cell growth at 10 uM incubated for 48 hrs by sulforhodamine B assay relative to control; type: functional; settings: read-out: Activity
[31] = test system: MCF7; assay: Growth inhibition of human MCF7 cells at 10 uM incubated for 72 hrs by cell counter analysis relative to control; type: functional; settings: read-out: GI
[32] = test system: NCI-H226; assay: Antiproliferative activity against human NCI-H226 cells assessed as cell growth at 10 uM incubated for 48 hrs by sulforhodamine B assay relative to control; type: functional; settings: read-out: Activity
[33] = test system: MCF7; assay: Induction of cell cycle arrest in human MCF7 cells assessed as increase in accumulation of cells at G2/M phase at 5 uM incubated for 72 hrs by propidium iodide staining based flow cytometry analysis; type: functional
[34] = test system: HOP-62; assay: Antiproliferative activity against human HOP-62 cells assessed as cell growth at 10 uM incubated for 48 hrs by sulforhodamine B assay relative to control; type: functional; settings: read-out: Activity
[35] = Growth inhibition of human MCF-10A cells at 50 uM incubated for 24 to 48 hrs by cell counter analysis relative to control; type: toxicity, cell-based; settings: time 24-48 hrs, read-out: GI
[36] = test system: SK-OV-3; assay: Antiproliferative activity against human SK-OV-3 cells assessed as cell growth at 10 uM incubated for 48 hrs by sulforhodamine B assay relative to control; type: functional; settings: read-out: Activity
[37] = test system: MDA-MB-231; assay: Growth inhibition of human MDA-MB-231 cells at 10 uM incubated for 72 hrs by cell counter analysis relative to control; type: functional; settings: read-out: GI
[38] = test system: MCF7; assay: Growth inhibition of human MCF7 cells at 50 uM incubated for 72 hrs by cell counter analysis relative to control; type: functional; settings: read-out: GI
[39] = test system: HCT-15; assay: Antiproliferative activity against human HCT-15 cells assessed as cell growth at 10 uM incubated for 48 hrs by sulforhodamine B assay relative to control; type: functional; settings: read-out: Activity
[40] = test system: ACHN; assay: Antiproliferative activity against human ACHN cells assessed as cell growth at 10 uM incubated for 48 hrs by sulforhodamine B assay relative to control; type: functional; settings: read-out: Activity
[41] = test system: UACC-257; assay: Antiproliferative activity against human UACC-257 cells assessed as cell growth at 10 uM incubated for 48 hrs by sulforhodamine B assay relative to control; type: functional; settings: read-out: Activity
[42] = test system: MCF7; assay: Induction of cell cycle arrest in human MCF7 cells assessed as increase in accumulation of cells at sub-G1 phase at 5 uM incubated for 72 hrs by propidium iodide staining based flow cytometry analysis; type: functional
[43] = test system: UO-31; assay: Antiproliferative activity against human UO-31 cells assessed as cell growth at 10 uM incubated for 48 hrs by sulforhodamine B assay relative to control; type: functional; settings: read-out: Activity
[44] = test system: K562; assay: Antiproliferative activity against human K562 cells assessed as cell growth at 10 uM incubated for 48 hrs by sulforhodamine B assay relative to control; type: functional; settings: read-out: Activity
[45] = test system: MDA-MB-231; assay: Growth inhibition of human MDA-MB-231 cells at 50 uM incubated for 72 hrs by cell counter analysis relative to control; type: functional; settings: read-out: GI
[46] = Growth inhibition of human MCF-10A cells at 10 uM incubated for 24 hrs by cell counter analysis relative to control; type: toxicity, cell-based; settings: read-out: GI
[47] = test system: RPMI-8226; assay: Antiproliferative activity against human RPMI-8226 cells assessed as cell growth at 10 uM incubated for 48 hrs by sulforhodamine B assay relative to control; type: functional; settings: read-out: Activity
[48] = test system: NCI-H522; assay: Antiproliferative activity against human NCI-H522 cells assessed as cell growth at 10 uM incubated for 48 hrs by sulforhodamine B assay relative to control; type: functional; settings: read-out: Activity
[49] = test system: MCF7; assay: Induction of apoptosis in human MCF7 cells assessed as increase in ROS production at 5 to 25 uM by H2DCFDA staining based flow cytometric analysis; type: functional, cell-based; settings: dose 5-25 µM
[50] = test system: MCF7; assay: Growth inhibition of human MCF7 cells at 10 uM incubated for 24 hrs by cell counter analysis relative to control; type: functional; settings: read-out: GI
[51] = test system: LOX IMVI; assay: Antiproliferative activity against human LOX IMVI cells assessed as cell growth at 10 uM incubated for 48 hrs by sulforhodamine B assay relative to control; type: functional; settings: read-out: Activity

For `CC(=O)c1c(C)[nH]c2c1c(-c1ccc3c(c1)OCO3)nc1ccccc12`, the growth at 10 µM [1] was 31.6%, the growth at 10 µM [2] was 82.2% and the inhibition [3] was “Dose-Dependent Effect”. The inhibition at 25 µM [4] was 42%, the growth at 10 µM [5] was 81.7% and the growth at 10 µM [6] was 60.1%. The growth at 10 µM [7] was 84.3%, the growth at 10 µM [8] was 70.3% and the growth at 10 µM [9] was 75.8%. The inhibition of growth at 25 µM [10] was 38%, the inhibition of growth at 25 µM [11] was 35% and the growth at 10 µM [12] was 88.3%. It also gave a growth at 10 µM [13] of 41.5%, a growth at 10 µM [14] of 59.5% and a growth at 10 µM [15] of 58.9%. The inhibition of growth at 50 µM [16] was 54%, the growth at 10 µM [17] was 74.6% and the inhibition at 72 h, 10 µM [18] was 11%. For the same compound, the inhibition of growth at 10 µM [19] was 37%, the Activity [20] was “Dose-Dependent Effect” and the inhibition of growth at 50 µM [21] was 60%. The growth at 10 µM [22] was 42.1%, the growth at 10 µM [23] was 107% and the Activity [24] was “Active”. The growth at 10 µM [25] was 46.5%, the Activity [26] was “Active” and the inhibition of growth at 25 µM [27] was 48%. The inhibition of growth at 25 µM [28] was 41%, the Activity [29] was “Active” and the growth at 10 µM [30] was 91.1%. For the same compound, the inhibition of growth at 10 µM [31] was 25%, the growth at 10 µM [32] was 65.6% and the Activity [33] was “inactive”. For the same compound, the growth at 10 µM [34] was 67.5%, the inhibition at 50 µM [35] was 63% and the growth at 10 µM [36] was 88.8%. For the same compound, the inhibition of growth at 10 µM [37] was 28%, the inhibition of growth at 50 µM [38] was 70% and the growth at 10 µM [39] was 69.5%. For the same compound, the growth at 10 µM [40] was 92.4%, the growth at 10 µM [41] was 73.9% and the Activity [42] was “Active”. The growth at 10 µM [43] was 26.4%, the growth at 10 µM [44] was 76.8% and the inhibition of growth at 50 µM [45] was 74%. The inhibition at 24 h, 10 µM [46] was 14%, the growth at 10 µM [47] was 90.3% and the growth at 10 µM [48] was 101%. For the same compound, the Activity [49] was “Active”, the inhibition of growth at 10 µM [50] was 32% and the growth at 10 µM [51] was 86.5%.
